From PubChem BioAssay AID1963986 (Molecular Pharmacology Branch, DTP, NCI, 2024)

Test system: 171881-019-R-J1-PDC tumor spheroid viability
Assay: Anticancer human tumor 171881-019-R-J1-PDC patient-derived invasive breast carcinoma cell line growth inhibition [PI3K]
Conditions: spheroids with HUVEC and MSC; for IC50: curve of first compound; for viability, T/C: stronger effect = lower value
Procedure, shortened: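 Multi-cell spheroids combine tumor cells with HUVEC and human MSCs, treated with targeted agents alone or with inavolisib, alpelisib, duvelisib or copanlisib. Concentrations fall in half-log steps from at or near clinical Cmax, or from 10 microM where Cmax is unknown; viability read-out.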

[1] = second compound 0.0316 µM, first compound 0.0316 µM
[2] = second compound 0.0316 µM, first compound 0.1 µM
[3] = second compound 0.0316 µM, first compound 0.316 µM
[4] = second compound 0.0316 µM, first compound 1 µM
[5] = second compound 0.0316 µM, first compound 3.16 µM
[6] = second compound 0.0316 µM, first compound 10 µM
[7] = second compound 0.1 µM, first compound 0.0316 µM
[8] = second compound 0.1 µM, first compound 0.1 µM
[9] = second compound 0.1 µM, first compound 0.316 µM
[10] = second compound 0.1 µM, first compound 1 µM
[11] = second compound 0.1 µM, first compound 3.16 µM
[12] = second compound 0.1 µM, first compound 10 µM
[13] = second compound 0.316 µM, first compound 0.0316 µM
[14] = second compound 0.316 µM, first compound 0.1 µM
[15] = second compound 0.316 µM, first compound 0.316 µM
[16] = second compound 0.316 µM, first compound 1 µM
[17] = second compound 0.316 µM, first compound 3.16 µM
[18] = second compound 0.316 µM, first compound 10 µM
[19] = second compound 1 µM, first compound 0.0316 µM
[20] = second compound 1 µM, first compound 0.1 µM
[21] = second compound 1 µM, first compound 0.316 µM
[22] = second compound 1 µM, first compound 1 µM
[23] = second compound 1 µM, first compound 3.16 µM
[24] = second compound 1 µM, first compound 10 µM
[25] = second compound 3.16 µM, first compound 0.0316 µM
[26] = second compound 3.16 µM, first compound 0.1 µM
[27] = second compound 3.16 µM, first compound 0.316 µM
[28] = second compound 3.16 µM, first compound 1 µM
[29] = second compound 3.16 µM, first compound 3.16 µM
[30] = second compound 3.16 µM, first compound 10 µM
[31] = second compound 10 µM, first compound 0.0316 µM
[32] = second compound 10 µM, first compound 0.1 µM
[33] = second compound 10 µM, first compound 0.316 µM
[34] = second compound 10 µM, first compound 1 µM
[35] = second compound 10 µM, first compound 3.16 µM
[36] = second compound 10 µM, first compound 10 µM
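Note: spheroids exposed to compound for 7 days before viability read.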
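Throughout, for viability, T/C: 100% = DMSO vehicle-treated spheroids.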

Question: Which results are given for `CC(Cn1ccc(-c2ccc(C#N)c(Cl)c2)n1)NC(=O)c1cc(C(C)O)[nH]n1` (stereo unspecified) + Cc1nc(NC(=O)N2CCCC2C(N)=O)sc1-c1ccnc(C(C)(C)C(F)(F)F)c1?
Answer: IC50 (second compound 0.0316 µM): > 10000 nM; IC50 (second compound 0.1 µM): > 10000 nM; IC50 (second compound 0.316 µM): 4160 nM; IC50 (second compound 1 µM): < 31.6 nM; IC50 (second compound 3.16 µM): < 31.6 nM; IC50 (second compound 10 µM): < 31.6 nM; viability, T/C [1]: 101%; viability, T/C [2]: 85.3%; viability, T/C [3]: 87.7%; viability, T/C [4]: 93.7%; viability, T/C [5]: 85%; viability, T/C [6]: 62.8%; viability, T/C [7]: 74.8%; viability, T/C [8]: 72.9%; viability, T/C [9]: 81.3%; viability, T/C [10]: 80%; viability, T/C [11]: 75.6%; viability, T/C [12]: 59.1%; viability, T/C [13]: 55.5%; viability, T/C [14]: 55.3%; viability, T/C [15]: 50.7%; viability, T/C [16]: 57.7%; viability, T/C [17]: 52.5%; viability, T/C [18]: 40.3%; viability, T/C [19]: 34.4%; viability, T/C [20]: 32.9%; viability, T/C [21]: 33.4%; viability, T/C [22]: 30.8%; viability, T/C [23]: 30.5%; viability, T/C [24]: 24.4%; viability, T/C [25]: 14.5%; viability, T/C [26]: 13.7%; viability, T/C [27]: 15.3%; viability, T/C [28]: 13.1%; viability, T/C [29]: 14.2%; viability, T/C [30]: 11.9%; viability, T/C [31]: 3.76%; viability, T/C [32]: 3.6%; viability, T/C [33]: 3.61%; viability, T/C [34]: 3.9%; viability, T/C [35]: 3.74%; viability, T/C [36]: 3.87%

Question: Which results are given for `Cn1ncc(Cl)c1-c1cc(C(=O)NC(CN)Cc2cccc(F)c2)sc1Cl` (stereo unspecified) + Cc1nc(NC(=O)N2CCCC2C(N)=O)sc1-c1ccnc(C(C)(C)C(F)(F)F)c1?
Answer: IC50 (second compound 0.0316 µM): 155 nM; IC50 (second compound 0.1 µM): 90.7 nM; IC50 (second compound 0.316 µM): 32.9 nM; IC50 (second compound 1 µM): < 31.6 nM; IC50 (second compound 3.16 µM): < 31.6 nM; IC50 (second compound 10 µM): < 31.6 nM; viability, T/C [1]: 77.8%; viability, T/C [2]: 60%; viability, T/C [3]: 34.2%; viability, T/C [4]: 20.2%; viability, T/C [5]: 11.4%; viability, T/C [6]: 4.55%; viability, T/C [7]: 71.3%; viability, T/C [8]: 47.4%; viability, T/C [9]: 31.6%; viability, T/C [10]: 17.6%; viability, T/C [11]: 11.4%; viability, T/C [12]: 4.51%; viability, T/C [13]: 50.1%; viability, T/C [14]: 42.2%; viability, T/C [15]: 28.9%; viability, T/C [16]: 16.3%; viability, T/C [17]: 9.51%; viability, T/C [18]: 4.96%; viability, T/C [19]: 32.2%; viability, T/C [20]: 29.3%; viability, T/C [21]: 19.2%; viability, T/C [22]: 12.7%; viability, T/C [23]: 8.96%; viability, T/C [24]: 3.93%; viability, T/C [25]: 13.7%; viability, T/C [26]: 13.4%; viability, T/C [27]: 11.3%; viability, T/C [28]: 8.81%; viability, T/C [29]: 6.34%; viability, T/C [30]: 1.66%; viability, T/C [31]: 3.8%; viability, T/C [32]: 3.93%; viability, T/C [33]: 3.32%; viability, T/C [34]: 2.79%; viability, T/C [35]: 1.39%; viability, T/C [36]: 0.18%

Question: With `Cn1nccc1Nc1nccc(-c2ccn(C(CO)c3ccc(Cl)c(F)c3)c(=O)c2)n1` (stereo unspecified) + Cc1nc(NC(=O)N2CCCC2C(N)=O)sc1-c1ccnc(C(C)(C)C(F)(F)F)c1 as the compound, how does the IC50 (second compound 0.0316 µM) read?
Answer: 297 nM

Question: What about the IC50 (second compound 0.1 µM) of the same compound?
Answer: 140 nM

Question: What about the IC50 (second compound 0.316 µM) of the same compound?
Answer: 34.9 nM

Question: What about the IC50 (second compound 1 µM) of the same compound?
Answer: < 31.6 nM

Question: And the IC50 (second compound 3.16 µM)?
Answer: < 31.6 nM

Question: What about the IC50 (second compound 10 µM) of the same compound?
Answer: < 31.6 nM

Question: And the viability, T/C [1]?
Answer: 89.8%

Question: And the viability, T/C [2]?
Answer: 73.2%

Question: What about the viability, T/C [3] of the same compound?
Answer: 47.2%

Question: And the viability, T/C [4]?
Answer: 32.1%

Question: And the viability, T/C [5]?
Answer: 23.1%

Question: What about the viability, T/C [6] of the same compound?
Answer: 18.4%

Question: And the viability, T/C [7]?
Answer: 81%

Question: What about the viability, T/C [8] of the same compound?
Answer: 55.8%

Question: What about the viability, T/C [9] of the same compound?
Answer: 36.2%

Question: And the viability, T/C [10]?
Answer: 24%

Question: And the viability, T/C [11]?
Answer: 18.5%

Question: What about the viability, T/C [12] of the same compound?
Answer: 16.2%

Question: What about the viability, T/C [13] of the same compound?
Answer: 51.1%

Question: What about the viability, T/C [14] of the same compound?
Answer: 37.8%

Question: What about the viability, T/C [15] of the same compound?
Answer: 22.6%

Question: And the viability, T/C [16]?
Answer: 14.6%

Question: What about the viability, T/C [17] of the same compound?
Answer: 10.9%

Question: What about the viability, T/C [18] of the same compound?
Answer: 8.35%

Question: And the viability, T/C [19]?
Answer: 27.4%

Question: What about the viability, T/C [20] of the same compound?
Answer: 20%

Question: And the viability, T/C [21]?
Answer: 12.5%

Question: What about the viability, T/C [22] of the same compound?
Answer: 7.16%

Question: And the viability, T/C [23]?
Answer: 5.6%

Question: And the viability, T/C [24]?
Answer: 4.92%

Question: What about the viability, T/C [25] of the same compound?
Answer: 12.3%

Question: What about the viability, T/C [26] of the same compound?
Answer: 8.08%

Question: What about the viability, T/C [27] of the same compound?
Answer: 4.7%

Question: And the viability, T/C [28]?
Answer: 3.17%

Question: And the viability, T/C [29]?
Answer: 2.1%

Question: And the viability, T/C [30]?
Answer: 1.72%

Question: And the viability, T/C [31]?
Answer: 2.73%

Question: What about the viability, T/C [32] of the same compound?
Answer: 2.2%

Question: What about the viability, T/C [33] of the same compound?
Answer: 1.3%

Question: And the viability, T/C [34]?
Answer: 0.88%

Question: And the viability, T/C [35]?
Answer: 0.68%

Question: What about the viability, T/C [36] of the same compound?
Answer: 0.53%
